Experimental data: the supplement of paper PMC8149375

How the values were obtained:
Conditions in all cases: treatment: drug alone; 5 days
CAKI-1 [1] = experiment: minimum viability across doses, drug alone, relative to DMSO (fraction); higher = less growth inhibition
Experimental: (§1)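 Primary HTS: 8 RCC cell lines treated with 8 doses (up to 10 uM) of each library drug alone for 5 days; viability read by CellTiter-Glo and normalised to DMSO. GI50 was fitted with XLfit (4-parameter), AUC is the area under the dose-response curve, and minimum viability is the lowest fraction of DMSO viability across doses.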

786-O [2] = experiment: as above
Experimental: as §1

TK-10 [3] = experiment: as above
Experimental: as §1

ACHN [4] = experiment: as above
Experimental: as §1

SN12C [5] = experiment: as above
Experimental: as §1

UO-31 [6] = experiment: as above
Experimental: as §1

A498 [7] = experiment: as above
Experimental: as §1

769-P [8] = experiment: as above
Experimental: as §1

CAKI-1 [9] = experiment: GI50, drug alone; higher = less potent
Experimental: as §1

786-O [10] = experiment: GI50, drug alone; higher = less potent
Experimental: as §1

TK-10 [11] = experiment: GI50, drug alone; higher = less potent
Experimental: as §1

ACHN [12] = experiment: GI50, drug alone; higher = less potent
Experimental: as §1

SN12C [13] = experiment: GI50, drug alone; higher = less potent
Experimental: as §1

UO-31 [14] = experiment: GI50, drug alone; higher = less potent
Experimental: as §1

A498 [15] = experiment: GI50, drug alone; higher = less potent
Experimental: as §1

769-P [16] = experiment: GI50, drug alone; higher = less potent
Experimental: as §1

CAKI-1 [17] = experiment: AUC of dose-response viability curve, drug alone (arbitrary (AUC of normalised viability)); higher = less growth inhibition
Experimental: as §1

786-O [18] = experiment: as above
Experimental: as §1

TK-10 [19] = experiment: as above
Experimental: as §1

ACHN [20] = experiment: as above
Experimental: as §1

SN12C [21] = experiment: as above
Experimental: as §1

UO-31 [22] = experiment: as above
Experimental: as §1

A498 [23] = experiment: as above
Experimental: as §1

769-P [24] = experiment: as above
Experimental: as §1

Compound | minimum viability across doses (CAKI-1 [1]) | minimum viability across doses (786-O [2]) | minimum viability across doses (TK-10 [3]) | minimum viability across doses (ACHN [4]) | minimum viability across doses (SN12C [5]) | minimum viability across doses (UO-31 [6]) | minimum viability across doses (A498 [7]) | minimum viability across doses (769-P [8]) | GI50, drug alone (CAKI-1 [9]) [µM] | GI50, drug alone (786-O [10]) [µM] | GI50, drug alone (TK-10 [11]) [µM] | GI50, drug alone (ACHN [12]) [µM] | GI50, drug alone (SN12C [13]) [µM] | GI50, drug alone (UO-31 [14]) [µM] | GI50, drug alone (A498 [15]) [µM] | GI50, drug alone (769-P [16]) [µM] | AUC of dose-response viability curve (CAKI-1 [17]) | AUC of dose-response viability curve (786-O [18]) | AUC of dose-response viability curve (TK-10 [19]) | AUC of dose-response viability curve (ACHN [20]) | AUC of dose-response viability curve (SN12C [21]) | AUC of dose-response viability curve (UO-31 [22]) | AUC of dose-response viability curve (A498 [23]) | AUC of dose-response viability curve (769-P [24])
CNC(=O)c1ccc(-c2cnc3ncc(Cc4ccc5ncccc5c4)n3n2)cc1F | 0.802 | 0.652 | 0.843 | 0.842 | 0.913 | 1.21 | 0.984 | 0.916 | > 10 | > 10 | > 10 | > 10 | > 10 | > 10 | > 10 | > 10 | 3.25 | 2.88 | 3.14 | 3.21 | 3.41 | 5.21 | 4.54 | 3.5
c1ccc2c(-c3cnn4cc(-c5ccc(N6CCNCC6)cc5)cnc34)ccnc2c1 | 0.00218 | 0.0032 | 0.00522 | 0.00139 | 0.00261 | 0.00507 | 0.00414 | 0.00246 | 1.63 | 8.26 | 7.73 | 2.01 | 2.8 | 7.44 | 8.21 | 2.6 | 2.96 | 3.55 | 2.64 | 2.68 | 2.88 | 6.11 | 3.76 | 2.86
Nc1nc(Nc2ccc(S(N)(=O)=O)cc2)nn1C(=O)c1c(F)cccc1F | 0.0615 | 0.00276 | 0.573 | 0.0118 | 0.203 | 0.00913 | 0.559 | 0.0485 | 4.58 | 0.465 | > 10 | 2.4 | 4.89 | 2.8 | > 10 | > 10 | 3.13 | 1.8 | 2.77 | 2.85 | 2.99 | 3.19 | 3.39 | 3.08
COc1ncc(-c2ccc3nccc(-c4ccnnc4)c3c2)cc1NS(=O)(=O)c1ccc(F)cc1F | 0.0314 | 0.00239 | 0.0455 | 0.0976 | 0.0986 | 0.00994 | 0.283 | 0.0336 | 0.0289 | 0.0296 | 0.0365 | 0.0631 | 0.0766 | 0.092 | 0.242 | 0.0842 | 1.08 | 1.11 | 1.23 | 1.46 | 1.49 | 1.49 | 2.32 | 1.4
CC(=O)Nc1cccc(-n2c(=O)n(C3CC3)c(=O)c3c(Nc4ccc(I)cc4F)n(C)c(=O)c(C)c32)c1 | 0.201 | 0.332 | 0.289 | 0.312 | 0.405 | 0.382 | 0.735 | 0.257 | 0.228 | 0.0587 | 0.118 | 0.215 | 1.62 | 4.61 | > 10 | 0.567 | 1.93 | 1.76 | 1.67 | 1.81 | 2.39 | 3.28 | 3.29 | 2.26
CCn1c(-c2nonc2N)nc2c(C#CC(C)(C)O)ncc(OC[C@H]3CCCNC3)c21 | 0.432 | 0.288 | 0.469 | 0.434 | 0.693 | 0.769 | 0.979 | 0.839 | 5.92 | 0.396 | 4.51 | 9.28 | > 10 | > 10 | > 10 | > 10 | 2.74 | 1.97 | 2.59 | 3.03 | 3.06 | 3.19 | 3.82 | 3.15
Cc1ccccc1-n1c(Cn2cnc3c(N)ncnc32)nc2cccc(C)c2c1=O | 0.717 | 0.434 | 0.758 | 0.813 | 0.814 | 0.821 | 0.955 | 0.856 | > 10 | 7.98 | > 10 | > 10 | > 10 | > 10 | > 10 | > 10 | 3.12 | 2.46 | 2.93 | 3.17 | 3.12 | 3.41 | 3.88 | 3.25
CCc1cc(Nc2nccc(-c3c(-c4ccc(OC)c(C(=O)Nc5c(F)cccc5F)c4)nc4ccccn34)n2)c(OC)cc1N1CCC(N2CCN(S(C)(=O)=O)CC2)CC1 | 0.635 | 0.785 | 0.865 | 0.804 | 0.858 | 1 | 1.04 | 0.828 | > 10 | > 10 | > 10 | > 10 | > 10 | > 10 | > 10 | > 10 | 3.12 | 3.37 | 3.23 | 3.03 | 3.17 | 5.43 | 4.54 | 3.26
Cc1cnc(NC(=O)Nc2cc(Br)c(C)cc2OC[C@@H]2CNCCO2)cn1 | 0.145 | 0.00129 | 0.156 | 0.0243 | 0.175 | 0.00586 | 0.0991 | 0.0604 | 1.39 | 0.342 | 0.58 | 0.161 | 4.66 | 0.745 | 3.57 | > 10 | 2.83 | 2 | 2.25 | 1.82 | 3.07 | 3.67 | 3.76 | 2.27
C[C@@H]1CN(CC(=O)Nc2ccc3c(c2)Cc2cccc(-c4cc(=O)cc(N5CCOCC5)o4)c2S3)C[C@H](C)O1 | 0.224 | 0.35 | 0.701 | 0.548 | 0.646 | 1.35 | 0.893 | 0.855 | 4 | 6.61 | > 10 | > 10 | > 10 | > 10 | > 10 | > 10 | 2.8 | 3.37 | 3.25 | 3.15 | 3.35 | 6.19 | 4.69 | 3.53
c1ccc2c(CCNc3ccc(Nc4ccncc4)cc3)c[nH]c2c1 | 0.0912 | 0.00353 | 0.00837 | 0.00286 | 0.0036 | 0.00809 | 0.022 | 0.0434 | 0.66 | > 10 | 1.03 | 0.136 | 0.881 | 0.115 | 1.36 | 0.532 | 2.31 | 0.978 | 2.34 | 1.55 | 2.28 | 1.6 | 2.76 | 2.32
O=c1cc(-c2cccc3c2Sc2ccccc2S3)oc(N2CCOCC2)c1 | 0.648 | 0.638 | 0.791 | 0.496 | 0.864 | 0.981 | 0.864 | 0.864 | > 10 | > 10 | > 10 | 0.0705 | > 10 | > 10 | > 10 | > 10 | 3.06 | 2.98 | 3.14 | 2.57 | 3.23 | 4 | 3.49 | 3.21
CCn1cc(-c2ccnc3[nH]c(-c4cccc(CN(C)C)c4)cc23)c(-c2ccc(NC(=O)N(C)C)cc2)n1 | 0.0471 | 0.0121 | 0.0985 | 0.0251 | 0.0272 | 0.0615 | 0.121 | 0.165 | 0.49 | 0.0843 | 1.53 | 0.387 | 0.686 | 6.09 | 3.07 | 1.44 | 2.3 | 1.97 | 2.54 | 2.08 | 2.2 | 5.13 | 3.74 | 2.8
Cc1cc(Nc2cc(CN3CCOCC3)c3nc(C)c(Cc4ccc(Cl)cc4F)n3n2)[nH]n1 | 0.0334 | 0.00692 | 0.0389 | 0.103 | 0.216 | 0.0145 | 0.338 | 0.063 | 2.28 | 0.3 | 3.03 | 1.98 | 3.84 | 7.64 | 8.52 | 4.13 | 3.03 | 1.96 | 2.8 | 2.79 | 2.89 | 4.69 | 4.33 | 3.12
C[C@@H](Oc1cc(-n2cnc3ccc(CN4CCN(C)CC4)cc32)sc1C(N)=O)c1ccccc1C(F)(F)F | 0.17 | 0.00395 | 0.235 | 0.172 | 0.234 | 0.00269 | 0.599 | 0.0562 | 0.153 | 0.0194 | 1.34 | 0.0891 | 0.12 | 0.0449 | > 10 | 0.0697 | 1.77 | 0.807 | 2.36 | 1.75 | 1.92 | 1.4 | 2.98 | 1.49
CC(C)(C)Cn1c(N)nc2ccc(-c3[nH]c(C(C)(C)C)nc3-c3ccc(F)cc3)nc21.CS(=O)(=O)O.CS(=O)(=O)O | 0.512 | 0.636 | 0.564 | 0.407 | 0.811 | 0.733 | 0.972 | 0.709 | 8.16 | > 10 | 6.63 | 2.19 | > 10 | > 10 | > 10 | > 10 | 2.63 | 2.91 | 2.43 | 2.41 | 3.15 | 3.5 | 4.16 | 2.98
COc1ccc(-c2ccc3c(N4CCOCC4)nc(N4C[C@@H](C)O[C@@H](C)C4)nc3n2)cc1CO | 0.174 | 0.26 | 0.222 | 0.141 | 0.223 | 0.012 | 0.379 | 0.214 | 1.08 | 0.772 | 0.724 | 0.592 | 1.36 | 1.63 | 4.9 | 2.12 | 2.53 | 2.03 | 2.23 | 2.23 | 2.49 | 2.98 | 3.62 | 2.66
CNC(=O)c1c(F)cccc1Nc1nc(Nc2cc3c(cc2OC)CCN3C(=O)CN(C)C)nc2[nH]ccc12 | 0.00594 | 0.00507 | 0.142 | 0.00292 | 0.00561 | 0.0181 | 0.0165 | 0.016 | 3.46 | 1.49 | 3.14 | 3.02 | 4.02 | 8.35 | 8.55 | 2.4 | 2.94 | 2.4 | 2.69 | 2.82 | 2.88 | 4.52 | 4.86 | 2.73
Cn1cc(-c2ccc3nnc(C(F)(F)c4ccc5ncccc5c4)n3n2)cn1 | 0.59 | 0.862 | 0.799 | 0.792 | 0.93 | 1.12 | 1.05 | 0.868 | > 10 | > 10 | > 10 | > 10 | > 10 | > 10 | > 10 | > 10 | 2.4 | 3.59 | 3.33 | 3.24 | 3.44 | 4.62 | 4.15 | 3.38
